Experiments:
[1] = biological target: Beta-2 adrenergic receptor (Cavia porcellus) (UniProt Q8K4Z4); conditions: Trachea
Description: Beta-2-adrenoceptor potency was determined in rings of guinea-pig isolated trachea

[2] = biological target: Beta-2 adrenergic receptor (Cavia porcellus) (UniProt Q8K4Z4)
Description: In vitro beta-2 duration was determined using electrically stimulated guinea-pig isolated trachea superfusion system

physchem [3] = test: physchem
Description: Ionization constant (pKa)

physchem [4] = conditions: octanol/water, pH 7.4, logD

Sequence of Beta-2 adrenergic receptor (Cavia porcellus) (Q8K4Z4 whole entry, looked up): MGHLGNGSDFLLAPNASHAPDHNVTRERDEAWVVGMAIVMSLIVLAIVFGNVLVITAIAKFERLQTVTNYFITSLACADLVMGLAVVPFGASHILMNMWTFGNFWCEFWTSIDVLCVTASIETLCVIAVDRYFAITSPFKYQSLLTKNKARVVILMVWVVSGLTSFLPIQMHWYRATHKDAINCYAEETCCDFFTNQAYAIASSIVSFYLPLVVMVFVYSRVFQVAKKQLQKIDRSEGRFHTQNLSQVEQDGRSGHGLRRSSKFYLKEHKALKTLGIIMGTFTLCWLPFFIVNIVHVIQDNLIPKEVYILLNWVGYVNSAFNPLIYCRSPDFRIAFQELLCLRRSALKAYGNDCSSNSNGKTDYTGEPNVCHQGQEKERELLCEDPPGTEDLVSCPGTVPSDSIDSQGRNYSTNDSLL

Compound | p[A]50 [1] | Beta2 duration [2] | pKa (physchem [3]) | logD (physchem [4])
CC(C)(CCCCOCCc1ccc(O)cc1)CNCCc1ccc(O)c2nc(O)sc12 | 9.03 | > 180 min | > 8 | 
O=S(=O)(CCCOCCc1ccc(O)cc1)CCNCCc1ccc(O)c2nc(O)sc12 | 8.65 | 32 min | < 8 | 1.91
Oc1nc2c(O)ccc(CCNCCCCCOCCCc3ccccc3)c2s1 | 7 | > 180 min | > 8 | 
Oc1nc2c(O)ccc(CCNCCNCCCOCCc3ccccc3)c2s1 | 7.01 | 32 min | > 8 | 0.88
O=S(=O)(CCCNCCc1ccc(O)c2nc(O)sc12)CCNCCOc1ccccc1 | 6.73 | 28 min | > 8 | 0.9
O=S(=O)(CCCOCCNc1ccccc1)CCNCCc1ccc(O)c2nc(O)sc12 |  | 40 min | < 8 | 
Oc1nc2c(O)ccc(CCNCCCSCCOCCc3cccc4ccccc34)c2s1 | 5.8 | > 180 min | > 8 | 
CC(C)(CCCCOCCc1ccccc1N)CNCCc1ccc(O)c2nc(O)sc12 | 7.58 | > 180 min | > 8 | 
C[C@@H](COCCCS(=O)(=O)CCNCCc1ccc(O)c2nc(O)sc12)c1ccccc1 |  | 60 min | < 8 | 2.32
O=S(=O)(CCCNCCc1ccc(O)c2nc(O)sc12)NCCOCCSc1ccccc1 |  | 180 min | > 8 | 1.84
Nc1ccc(CCOCCCCCCNCCc2ccc(O)c3nc(O)sc23)cc1 | 9.4 | > 180 min | > 8 | 
CS(=O)(=O)Nc1ccc(CCOCCCS(=O)(=O)CCNCCc2ccc(O)c3nc(O)sc23)cc1 |  | 40 min | < 8 | 1.34
O=S(=O)(CCCNCCc1ccc(O)c2nc(O)sc12)NCCOCCc1cccc(Cl)c1 |  | 180 min | > 8 | 1.92
CN(CCCOCCOCCc1ccccc1)CCc1ccc(O)c2nc(O)sc12 |  | > 180 min | > 8 | 
O=S(=O)(CCCNCCc1ccc(O)c2nc(O)sc12)CCNCCc1ccccc1 | 7.88 | 18 min | > 8 | 
CSc1cccc(CCOCCS(=O)(=O)CCCNCCc2ccc(O)c3nc(O)sc23)c1 |  | 150 min | > 8 | 1.63
Oc1ccc(CCOCCCCCCNCCc2ccc(O)c3nc(O)sc23)cc1 | 8.81 | > 180 min | > 8 | 
O=S(=O)(CCOCCCc1ccccc1)NCCNCCc1ccc(O)c2nc(O)sc12 |  | > 180 min | > 8 | 2.22
Oc1nc2c(O)ccc(CCNCCCSCCCOCCc3ccccc3)c2s1 | 7.32 | > 180 min | > 8 | 
Cc1ccc(CCOCCNS(=O)(=O)CCCNCCc2ccc(O)c3nc(O)sc23)cc1 |  | > 180 min | > 8 | 2.07
CCN(CCCOCCOCCc1ccccc1)CCc1ccc(O)c2nc(O)sc12 |  | > 180 min | > 8 | 
Cc1ccc(CCOCCCS(=O)(=O)CCNCCc2ccc(O)c3nc(O)sc23)nc1 |  | 40 min | < 8 | 1.56
CC(C)(CCCCOCCc1ccc([N+](=O)[O-])cc1)CNCCc1ccc(O)c2nc(O)sc12 | 6.35 | > 180 min | > 8 | 
Cc1ccc(CCCOCCS(=O)(=O)CCCNCCc2ccc(O)c3nc(O)sc23)s1 |  | > 180 min | > 8 | 2.41
CN(CCCNCCc1ccc(O)c2nc(O)sc12)S(=O)(=O)CCOCCc1ccccc1 |  | 60 min | > 8 | 1.24
O=S(=O)(CCCOCCc1cc2ccccc2o1)CCNCCc1ccc(O)c2nc(O)sc12 |  | 160 min | < 8 | 2.86
CC(CCCCCOCCc1ccccc1)NCCc1ccc(O)c2nc(O)sc12 (stereo not given) | 8.08 | > 180 min | > 8 | 
CCCN(CCCOCCOCCc1ccccc1)CCc1ccc(O)c2nc(O)sc12 |  | > 180 min | > 8 | 

Compound | p[A]50 [1] | Beta2 duration [2] | pKa (physchem [3]) | logD (physchem [4])
O=S(=O)(CCCOCCc1nccc2ccccc12)CCNCCc1ccc(O)c2nc(O)sc12 |  | 50 min | < 8 | 2.35
Cc1cc(C)cc(CCOCCS(=O)(=O)NCCNCCc2ccc(O)c3nc(O)sc23)c1 |  | > 180 min | > 8 | 2.59
Cc1ccccc1CCOCCCS(=O)(=O)CCNCCc1ccc(O)c2nc(O)sc12 |  | 160 min | < 8 | 
O=S(=O)(CCCOCCc1ccc(F)cc1)CCNCCc1ccc(O)c2nc(O)sc12 | 7.92 | 67 min | < 8 | 
CN(CCNCCc1ccc(O)c2nc(O)sc12)C(=O)CCOCCc1ccccc1 | 8.29 | 116 min |  | 
CC(C)(CCCCCOCCc1ccccc1)NCCc1ccc(O)c2nc(O)sc12 | 8.42 | > 180 min | > 8 | 
O=S(=O)(CCCNCCc1ccc(O)c2nc(O)sc12)NCCOCCc1cccc(C(F)(F)F)c1 |  | > 180 min | > 8 | 2.62
C[C@@H](Cc1ccccc1)OCCCS(=O)(=O)CCNCCc1ccc(O)c2nc(O)sc12 |  | 180 min | > 8 | 1.81
O=S(=O)(CCCNCCc1ccc(O)c2nc(O)sc12)CCOCc1ccccc1 |  | 60 min | > 8 | 1.15
CC(C)(CCCCOCCc1cccc(N)c1)CNCCc1ccc(O)c2nc(O)sc12 | 8.39 | > 180 min | > 8 | 
CN(CCc1ccc(O)c2nc(O)sc12)CCN(C)C(=O)CCOCCc1ccccc1 |  | > 180 min |  | 
Cc1cc(C)cc(CCOCNS(=O)(=O)CCCNCCc2ccc(O)c3nc(O)sc23)c1 |  | > 180 min | > 8 | 
CN(CCNCCc1ccc(O)c2[nH]c(=O)sc12)C(=O)CCOCCc1ccccc1 |  |  | > 8 | 1.52
NC(=O)Nc1ccc(CCOCCCCCCNCCc2ccc(O)c3nc(O)sc23)cc1 | 9.2 | 140 min | > 8 | 
O=S(=O)(CCCNCCc1ccc(O)c2nc(O)sc12)NCCSCCc1ccccc1 |  | 180 min | > 8 | 1.77
O=S(=O)(CCCOCCc1ccccc1)NCCNCCc1ccc(O)c2nc(O)sc12 |  | 180 min | > 8 | 1.83
Oc1nc2c(O)ccc(CCNCCCCCCOCCc3ccccn3)c2s1 | 8.12 | 109 min | > 8 | 
O=S(=O)(CCOCc1cccc2ccccc12)NCCCNCCc1ccc(O)c2nc(O)sc12 |  | 180 min | > 8 | 1.69
Oc1nc2c(O)ccc(CCNCCCCCOCCc3ccccc3)c2s1 | 7.8 | > 180 min | > 8 | 
O=S(=O)(CCCNCCc1ccc(O)c2nc(O)sc12)NCCOCCc1ccc(F)cc1 |  | 150 min | > 8 | 1.57
Oc1nc2c(O)ccc(CCNCCCCCCOCCc3nccs3)c2s1 | 7.78 | > 180 min | > 8 | 
COc1ccc(CCOCCCS(=O)(=O)CCNCCc2ccc(O)c3nc(O)sc23)cc1 |  | 60 min | < 8 | 
CC(C)(CCCCOCCc1ccc(N)cc1)CNCCc1ccc(O)c2nc(O)sc12 | 8.86 | > 180 min | > 8 | 
Cc1ncsc1CCOCCCS(=O)(=O)CCNCCc1ccc(O)c2nc(O)sc12 |  | 40 min | < 8 | 1.44
N#Cc1ccc(CCOCCCS(=O)(=O)CCNCCc2ccc(O)c3nc(O)sc23)cc1 |  | 40 min | < 8 | 2
CN(CCc1ccc(O)c2[nH]c(=O)sc12)CCN(C)C(=O)CCOCCc1ccccc1 |  |  | > 8 | 
O=S(=O)(CCCOCCSc1ccccc1)CCNCCc1ccc(O)c2nc(O)sc12 |  | 120 min | < 8 | 2.68
